Assays:
[1] = target: rat nNOS (Rattus norvegicus, UniProt P29476); assay: NOS inhibition, hemoglobin; type: biochemical
[2] = target: nNOS in 293T cells overexpressing nNOS (293T/nNOS cells) (Rattus norvegicus, UniProt P29476); assay: Cell-based nNOS inhibition assay; conditions: for activity in the cell-based assay (in words): A23187 (5 μM), 8 h
[3] = rodent in vivo studies; cited from earlier work

**Q.** With `Cc1cc(C)nc(NCc2ccc3cc(CNc4cc(C)cc(C)n4)ccc3c2)c1` [3a, N,N'-(Naphthalene-2,6-diylbis(methylene))bis(4,6-dimethylpyridin-2-amine)] as the compound, how does the “binding / inhibition of nNOS (in words)” value [1] read?
**A.** The value was “poor binding”.

**Q.** With `Cc1cc(N)nc(CCc2ccc3cc(CCc4cc(C)cc(N)n4)ccc3c2)c1` [3b, 6,6'-(2,2'-(Naphthalene-2,6-diyl)bis(ethane-2,1-diyl))bis(4-methylpyridin-2-amine)] as the compound, how does the “binding / inhibition of nNOS (in words)” value [1] read?
**A.** Its value is “sub-micromolar binding affinity”.

**Q.** For `Cc1cc(N)nc(CCc2ccc3ccc(CCc4cc(C)cc(N)n4)cc3c2)c1` [3c, 6,6'-(2,2'-(Naphthalene-2,7-diyl)bis(ethane-2,1-diyl))bis(4-methylpyridin-2-amine)], which “binding / inhibition of nNOS (in words)” value [1] is on record?
**A.** Its value is “sub-micromolar binding affinity”.

**Q.** For `Cc1cc(N)nc(CCc2ccc3ccc(CCc4cc(C)nc(N)c4)cc3c2)c1` [3d, 4-(2-(7-(2-(6-Amino-4-methylpyridin-2-yl)ethyl)naphthalen-2-yl)ethyl)-6-methylpyridin-2-amine], which “binding / inhibition of nNOS (in words)” value [1] is on record?
**A.** The value was “poor inhibitor”.

**Q.** Which “activity in the cell-based assay (in words)” value [2] does the source give for `Cc1cc(N)nc(CCc2cccc(CCc3cc(C)cc(N)n3)c2)c1` [3g, 6,6'-(2,2'-(1,3-Phenylene)bis(ethane-2,1-diyl))bis(4-methylpyridin-2-amine)] here?
**A.** The value was “almost no activity”.

**Q.** Which “activity in the cell-based assay (in words)” value [2] does the source give for `Cc1cc(N)nc(CCc2cccc(CCc3cc(C)nc(N)c3)c2)c1` [3h, 4-(3-(2-(6-Amino-4-methylpyridin-2-yl)ethyl)phenethyl)-6-methylpyridin-2-amine] here?
**A.** Its value is “almost no activity”.

**Q.** With `Cc1cc(CCc2cccc(CCc3cc(C)nc(N)c3)c2)cc(N)n1` [3i, 4,4'-(2,2'-(1,3-Phenylene)bis(ethane-2,1-diyl))bis(6-methylpyridin-2-amine)] as the compound, how does the “binding / inhibition of nNOS (in words)” value [1] read?
**A.** The value was “binds rather poorly”.

**Q.** For `Cc1cc(N)nc(CCc2cncc(CCc3cc(C)cc(N)n3)c2)c1` [3j, 6,6'-(2,2'-(Pyridine-3,5-diyl)bis(ethane-2,1-diyl))bis(4-methylpyridin-2-amine)], which “membrane penetration ability (in words, from cell-based assay)” value [2] is on record?
**A.** The value was “good membrane penetration ability”.

**Q.** Which “membrane penetration ability (in words, from cell-based assay)” value [2] does the source give for `Cc1cc(N)nc(CCc2cncc(CCc3cc(C)nc(N)c3)c2)c1` [3k, 4-(2-(5-(2-(6-Amino-4-methylpyridin-2-yl)ethyl)pyridin-3-yl)ethyl)-6-methylpyridin-2-amine] here?
**A.** The value was “good membrane penetration ability”.

**Q.** For `Cc1cc(N)nc(C[C@H]2CNC[C@H]2NCCNCCc2cccc(F)c2)c1` [compound 1], which “ability to penetrate the blood brain barrier (BBB)” value [3] is on record?
**A.** The value was “poor ability to penetrate the blood brain barrier”.

**Q.** For `Cc1cc(N)nc(C[C@@H]2CNC[C@@H]2NCCNCCc2cccc(F)c2)c1` [compound 2], which “ability to penetrate the blood brain barrier (BBB)” value [3] is on record?
**A.** The value was “poor ability to penetrate the blood brain barrier”.

From article PMC3072459 (Journal of medicinal chemistry, 2011)
